Results taken from US20240279215A1 (Cytokinetics, Incorporated, priority 2022, published 2024).
Values joined by “and” are separate entries in the source; they are usually repeats but may differ in a detail not shown here. Identical values can stand only once.

How the values were obtained:
[1] = test system: MDCK-MDR1 cells (P-gp, MDR1); test: MDR1-MDCK bidirectional permeability assay; settings: for PappAB: A to B
Description: (§1) A bidirectional permeability assay using Madin Darby canine kidney cells expressing multi-drug resistance gene 1 (MDCK-MDR1) is routinely used to evaluate discovery compounds' BBB permeability and drug efflux toward the advancement of discovery compounds with brain penetration.
(§2) MDCK-MDR1 Cells (NIH cell line) were obtained from the National Institutes of Health. […] Cell culture medium was replaced every other day, beginning no later than 24 hours after the initial plating. […] The dosing solution concentration was 1 μM for the test article in the assay buffer. Cell monolayers were dosed on the apical side (A-to-B) or basolateral side (B-to-A) and incubated at 37° C. under an atmosphere of 5% CO2 in a humidified incubator. Samples were taken from the donor and receiver chambers at 120 minutes. Each determination was performed in duplicate. After the 120 min transport period, the flux of lucifer yellow was also measured for each monolayer to ensure no damage was inflicted to the cell monolayers during the transport period. All samples were assayed by LC-MS/MS (Waters XSelect HSS T3 C18, 2.5 m, 2.1×50 mm) using electrospray ionization with 0.1% formic acid in water (mobile phase A) and 0.1% formic acid in acetonitrile (mobile phase B) as mobile phases. The apparent permeability coefficient (Papp), in units of cm per second, was calculated for MDCK-MDR1 Cells (NIH cell line) drug transport assays using the following equation:
(§3) Where VA is the volume (in mL) in the acceptor well, Area is the surface area of the membrane (0.143 cm^2 for Transwell-96 Well Permeable Supports), and time is the total transport time in seconds.
(§4) The leakage of Lucifer Yellow (LY), in unit of percentage (%), can be calculated using the following equation:
(§5) LY leakage of <1% is acceptable to indicate the well-qualified MDCK-MDR1(NIH) monolayer.

[2] = test system: P-gp (MDR1); test: MDR1-MDCK bidirectional permeability assay; settings: dog, MDCK-MDR1, pH 7.4, Efflux ratio
Description: as §1, §2, §3, §4, §5

[3] = target: human NAMPT (Homo sapiens (Human), UniProt P43490); test: NMN fluorescence biochemical assay (human recombinant NAMPT enzyme assay)
Outline: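 NMN formed was detected by fluorescence (Ex/Em 355/460 nm) after acetophenone, KOH and formic acid derivatization. The cell-free reaction ran 60 min at ambient temperature with 6 nM human NAMPT, 150 μM nicotinamide, 20 μM PRPP, 2.5 mM ATP, pH 7.2 HEPES, and compound dose responses.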

Chain of human NAMPT (P43490 whole entry): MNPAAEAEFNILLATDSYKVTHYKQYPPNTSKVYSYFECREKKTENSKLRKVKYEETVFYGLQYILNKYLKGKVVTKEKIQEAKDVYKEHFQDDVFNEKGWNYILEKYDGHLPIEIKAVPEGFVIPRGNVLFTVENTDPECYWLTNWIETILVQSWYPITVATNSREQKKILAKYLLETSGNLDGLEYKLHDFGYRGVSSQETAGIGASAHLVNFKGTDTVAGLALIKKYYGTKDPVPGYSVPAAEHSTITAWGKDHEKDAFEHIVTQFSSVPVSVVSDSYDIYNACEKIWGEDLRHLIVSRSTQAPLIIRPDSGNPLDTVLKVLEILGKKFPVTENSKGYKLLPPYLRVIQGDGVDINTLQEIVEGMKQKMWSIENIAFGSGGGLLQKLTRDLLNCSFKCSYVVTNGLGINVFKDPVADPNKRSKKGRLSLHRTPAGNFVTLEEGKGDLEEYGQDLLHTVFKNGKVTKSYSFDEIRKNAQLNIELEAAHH

Structure (SMILES)	PappAB [1]	efflux ratio at 120 min, 1 μM [2]	AC1.4 Human [3] [µM]	EC50 [3] [µM]	Efflux ratio [1]
O=C(NCc1ccc(Cl)cc1)Nc1ccc(CC2CCN(C3COC3)CC2)cc1 [Comparator 1, 1-(4-chlorobenzyl)-3-(4-((1-(oxetan-3-yl)piperidin-4-yl)methyl)phenyl)urea, reference compound]	1.85	14.7	–	–	–
O=C(Nc1ccc(CN2CCC[C@@H]2c2cccnc2)cc1)OCc1ccc(CO)cc1 [Compound 5, [4-(hydroxymethyl)phenyl]methyl N-(4-{[(2R)-2-(pyridin-3-yl)pyrrolidin-1-yl]methyl}phenyl)carbamate]	5.32	7.02	0.07	0.29	–
CC(=O)N1CCC(c2ccc(NC(=O)OCc3cnco3)cc2)CC1 [Compound 8, 1,3-oxazol-5-ylmethyl N-[4-(1-acetylpiperidin-4-yl)phenyl]carbamate]	9.77	5.41	0.14	32.6	–
Cc1ccc(C(=O)NCc2ccc(NC(=O)OCc3ccc(Cl)cc3)cc2)cn1 [Compound 21, (4-chlorophenyl)methyl N-(4-{[(6-methylpyridin-3-yl)formamido]methyl}phenyl)carbamate]	2.79	3.74	0.30	2	–
COC(=O)N1CCC(Cc2ccc(NC(=O)OCc3ccncc3)cc2)CC1 [Compound 23, methyl 4-(4-(((pyridin-4-ylmethoxy)carbonyl)amino)benzyl)piperidine-1-carboxylate]	6.30	2	0.32	2.76	–
CN(C)C(=O)N1CCC(CCc2ccc(NC(=O)OCc3cnco3)cc2)CC1 [Compound 32, oxazol-5-ylmethyl (4-(2-(1-(dimethylcarbamoyl)piperidin-4-yl)ethyl)phenyl)carbamate]	5.57	3.32	0.38	21	–
CC(=O)N1CCC(Cc2ccc(NC(=O)OCc3ccc(Cl)cc3)cc2)CC1 [Compound 40, 4-chlorobenzyl (4-((1-acetylpiperidin-4-yl)methyl)phenyl)carbamate]	3.38 and 3.4	1.93	0.43	2.4	1.9
O=C(Nc1ccc(CC2CCN(C3COC3)CC2)cc1)OCc1ccc(Cl)cc1 [Compound 43, 4-chlorobenzyl (4-((1-(oxetan-3-yl)piperidin-4-yl)methyl)phenyl)carbamate]	5.39 and 5.4	0.92	0.45	4.56	–
O=C(Nc1ccc(CC2CCN(CC(F)F)CC2)cc1)OCc1cnco1 [Compound 59, oxazol-5-ylmethyl (4-((1-(2,2-difluoroethyl)piperidin-4-yl)methyl)phenyl)carbamate]	13.26	1.11	0.56	48.9	–
O=C(Nc1ccc(CC2CCN(CC(F)(F)F)CC2)cc1)OCc1cnco1 [Compound 70, oxazol-5-ylmethyl (4-((1-(2,2,2-trifluoroethyl)piperidin-4-yl)methyl)phenyl)carbamate]	9.10	1.04	0.61	22.9	–
O=C(Nc1ccc(CCC2CCN(C3COC3)CC2)cc1)OCc1cnco1 [Compound 132, oxazol-5-ylmethyl (4-(2-(1-(oxetan-3-yl)piperidin-4-yl)ethyl)phenyl)carbamate]	13.54	2.26	1.06	41.1	–
O=C(Nc1ccc(COC2CCN(C3COC3)CC2)cc1)OCc1ccc(Cl)cc1 [Compound 232, 4-chlorobenzyl (4-(((1-(oxetan-3-yl)piperidin-4-yl)oxy)methyl)phenyl)carbamate]	9.8	1.5	2.17	20.8	–
CC(C)S(=O)(=O)N1CCC(Cc2ccc(NC(=O)OCc3cnco3)cc2)CC1 [Compound 464, oxazol-5-ylmethyl (4-((1-(isopropylsulfonyl)piperidin-4-yl)methyl)phenyl)carbamate]	9.11	2.19	0.14	3.07	–
